Experimental data: ChEMBL document CHEMBL4613209, “Quinolone hybrids and their anti-cancer activities: An overview” (Eur J Med Chem, 2019)
Converted amounts (≈) assume the structure as drawn. Blank lines part the entries; values can stand above or below the compound they belong to.

Tests used:
[1] = biological target: Histone deacetylase; experiment: Inhibition of HDAC (unknown origin); type: protein assay, Homo sapiens
[2] = tested on: MCF-10A; experiment: Antiproliferative activity against human MCF10A cells by CCK8 assay; type: cell-based
[3] = tested on: HeLa; experiment: Antiproliferative activity against human HeLa cells by CCK8 assay; type: functional, cell-based
[4] = tested on: MCF7; experiment: Antiproliferative activity against human MCF7 cells by CCK8 assay; type: functional, cell-based
[5] = biological target: Tubulin; experiment: Inhibition of tubulin polymerization (unknown origin); type: protein-complex assay, Homo sapiens
[6] = tested on: PC-3; experiment: Antiproliferative activity against human PC3 cells by CCK8 assay; type: functional, cell-based
[7] = tested on: HepG2; experiment: Antiproliferative activity against human HepG2 cells by CCK8 assay; type: functional, cell-based
[8] = tested on: A549; experiment: Antiproliferative activity against human A549 cells by CCK8 assay; type: functional, cell-based
[9] = tested on: HT-29; experiment: Anticancer activity against human HT-29 cells by MTT assay; type: functional, cell-based
[10] = tested on: HepG2; experiment: Anticancer activity against human HepG2 cells by MTT assay; type: functional, cell-based
[11] = tested on: HL-60; experiment: Anticancer activity against human HL60 cells by MTT assay; type: functional, cell-based
[12] = tested on: NCI-H460; experiment: Growth inhibition of human NCI-H460 cells; type: functional; details: pooled result: one value given for 3 cell lines, strains, targets or settings
[13] = tested on: K562; experiment: Anticancer activity against human K562 cells; type: functional, cell-based
[14] = tested on: SiHa; experiment: Growth inhibition of human SiHa cells after 48 hrs by SRB assay; type: functional
[15] = tested on: MDA-MB-231; experiment: Growth inhibition of human MDA-MB-231 cells after 48 hrs by SRB assay; type: functional; details: MDA-MB-231, 48 h
[16] = tested on: HeLa; experiment: Antiproliferative activity against human HeLa cells after 48 hrs by MTT assay; type: functional, cell-based
[17] = tested on: HCT-116; experiment: Antiproliferative activity against human HCT116 cells after 48 hrs by MTT assay; type: functional, cell-based; details: HCT-116, 48 h
[18] = tested on: A549; experiment: Antiproliferative activity against human A549 cells after 48 hrs by MTT assay; type: functional, cell-based; details: A549, 48 h
[19] = tested on: PANC-1; experiment: Antiproliferative activity against human PANC1 cells after 48 hrs by MTT assay; type: functional, cell-based; details: PANC-1, 48 h
[20] = tested on: A549; experiment: Cytotoxicity against human A549 cells assessed as reduction in cell viability; type: functional, cell-based
[21] = tested on: HCT-8; experiment: Anticancer activity against human HCT8 cells; type: functional, cell-based
[22] = tested on: P388; experiment: Cytotoxicity against doxorubicin resistant mouse P388 cells assessed as reduction in cell viability; type: functional, cell-based
[23] = tested on: P388; experiment: Cytotoxicity against mouse P388 cells assessed as reduction in cell viability; type: functional, cell-based
[24] = tested on: P388; experiment: Anticancer activity against doxorubicin resistant mouse P388 cells; type: functional, cell-based
[25] = tested on: HT-29; experiment: Cytotoxicity against human HT-29 cells assessed as reduction in cell viability; type: functional, cell-based
[26] = tested on: HT-29; experiment: Anticancer activity against human HT-29 cells; type: functional, cell-based
[27] = tested on: B16-F10; experiment: Cytotoxicity against mouse B16F10 cells assessed as reduction in cell viability; type: functional, cell-based
[28] = tested on: P388; experiment: Anticancer activity against mouse P388 cells; type: functional, cell-based
[29] = tested on: MCF7; experiment: Anticancer activity against human MCF7 cells; type: functional, cell-based
[30] = tested on: B16-F10; experiment: Anticancer activity against mouse B16F10 cells; type: functional, cell-based
[31] = tested on: A549; experiment: Anticancer activity against human A549 cells; type: functional, cell-based
[32] = tested on: Lewis lung carcinoma cell line; experiment: Anticancer activity against mouse LLC cells; type: functional, cell-based
[33] = Toxicity in mouse xenografted with human CX-1 cells; details: in vivo
[34] = Toxicity in mouse xenografted with human MB-9812 cells

IC50 [1]: 21 to 850 nM | IC50 [3]: 300 to 12800 nM | IC50 [4]: 300 to 12800 nM | IC50 [5]: 1790 to 6360 nM | IC50 [6]: 300 to 12800 nM | IC50 [7]: 300 to 12800 nM | IC50 [8]: 300 to 12800 nM
SMILES: C[C@H]1COc2c(N3CCN(C)CC3)c(F)cc3c(=O)c(C(=O)OCc4cn(CCCCCCCC(=O)NO)nn4)cn1c23
IC50 [2]: > 100000 nM

IC50 [9]: 13100 to 88400 nM | IC50 [10]: 13100 to 88400 nM | IC50 [11]: 13100 to 88400 nM
SMILES: CCOC(=O)c1cn(Cc2cn(-c3ccc(C)cc3)nn2)c2ccc(Cl)cc2c1=O

GI50 [12]: 10700 to 53700 nM
SMILES: O=c1[nH]c2ccc(F)cc2c2oc3ccccc3c12

IC50 [16]: > 10000 nM | IC50 [17]: > 10000 nM | IC50 [18]: > 10000 nM | IC50 [19]: > 10000 nM
SMILES: O=C(NO)c1cn(C2CC2)c2cc(-n3cc(CN4CCCCC4)nn3)c(F)cc2c1=O

GI50 [15]: ≤ 100 nM
SMILES: O=C(O)c1cn(C2CC2)c2cc(N3CCN(C(=O)CCSc4nnnn4-c4ccc(Br)cc4)CC3)c(F)cc2c1=O
GI50 [14]: ≤ 100 nM

IC50 [16]: > 10000 nM | IC50 [17]: > 10000 nM | IC50 [18]: > 10000 nM | IC50 [19]: > 10000 nM
SMILES: CN(C)Cc1cn(-c2cc3c(cc2F)c(=O)c(C(=O)NO)cn3C2CC2)nn1

IC50 [9]: 13100 to 88400 nM | IC50 [10]: 13100 to 88400 nM | IC50 [11]: 13100 to 88400 nM
SMILES: CCOC(=O)c1cn(Cc2cn(-c3ccc(Cl)cc3)nn2)c2ccc(Cl)cc2c1=O

IC50 [16]: > 10000 nM | IC50 [17]: > 10000 nM | IC50 [18]: > 10000 nM | IC50 [19]: > 10000 nM
SMILES: CC(C)NCc1cn(-c2cc3c(cc2F)c(=O)c(C(=O)NO)cn3C2CC2)nn1

IC50 [9]: 13100 to 88400 nM | IC50 [10]: 13100 to 88400 nM | IC50 [11]: 13100 to 88400 nM
SMILES: CCOC(=O)c1cn(Cc2cn(-c3ccc(Cl)cc3)nn2)c2ccc(C)cc2c1=O

IC50 [13]: 64100 to 198000 nM
SMILES: CCOC(=O)c1cn([C@@H]2O[C@H](CO)[C@@H](O)[C@H]2O)c2ccc(Nc3ccccc3)cc2c1=O

IC50 [21]: 30 to 490 nM | IC50 [24]: 30 to 490 nM | IC50 [26]: 30 to 490 nM | IC50 [28]: 30 to 490 nM | IC50 [29]: 30 to 490 nM | IC50 [30]: 30 to 490 nM | IC50 [31]: 30 to 490 nM | IC50 [32]: 30 to 490 nM
SMILES: Cc1ccc(NC2CCN(C3C(F)=Cc4c5n(cc(C(=O)O)c4=O)-c4ccccc4OC53)C2)cc1 (stereo not drawn)
IC50 [20]: 0.011 to 0.59 µg/mL (≈ 0.0232 to 1.25 µM) | IC50 [22]: 0.011 to 0.59 µg/mL (≈ 0.0232 to 1.25 µM) | IC50 [23]: 0.011 to 0.59 µg/mL (≈ 0.0232 to 1.25 µM) | IC50 [25]: 0.011 to 0.59 µg/mL (≈ 0.0232 to 1.25 µM) | IC50 [27]: 0.011 to 0.59 µg/mL (≈ 0.0232 to 1.25 µM)

GI50 [12]: 19000 nM
SMILES: O=c1[nH]c2ccccc2c2[nH]c3ccccc3c12

The remaining lines, values behind:

SMILES: O=C(O)c1cn([C@@H]2O[C@H](CO)[C@@H](O)[C@H]2O)c2ccc(Oc3ccccc3)cc2c1=O
IC50 [13]: 64100 to 198000 nM

SMILES: C[C@H]1COc2c(N3CCN(C)CC3)c(F)cc3c(=O)c(C(=O)NCc4cn(CCCCCCCC(=O)NO)nn4)cn1c23
IC50 [1]: 21 to 850 nM | IC50 [2]: > 100000 nM | IC50 [3]: 300 to 12800 nM | IC50 [4]: 300 to 12800 nM | IC50 [5]: 1790 to 6360 nM | IC50 [6]: 300 to 12800 nM | IC50 [7]: 300 to 12800 nM | IC50 [8]: 300 to 12800 nM

SMILES: CCn1cc(C(=O)O)c(=O)c2cnc(N3CCN(C(=O)CCSc4nnnn4Cc4ccccc4)CC3)nc21
GI50 [14]: ≤ 100 nM | GI50 [15]: ≤ 100 nM

SMILES: O=C(NO)c1cn(C2CC2)c2cc(-n3cc(CN4CCOCC4)nn3)c(F)cc2c1=O
IC50 [16]: > 10000 nM | IC50 [17]: > 10000 nM | IC50 [18]: > 10000 nM | IC50 [19]: > 10000 nM

SMILES: NC1CCN(C2C(F)=Cc3c4n(cc(C(=O)O)c3=O)-c3ccccc3OC42)C1 (stereo not drawn)
IC50 [20]: 0.011 to 0.59 µg/mL (≈ 0.0287 to 1.54 µM) | IC50 [21]: 30 to 490 nM | IC50 [22]: 0.011 to 0.59 µg/mL (≈ 0.0287 to 1.54 µM) | IC50 [23]: 0.011 to 0.59 µg/mL (≈ 0.0287 to 1.54 µM) | IC50 [24]: 30 to 490 nM | IC50 [25]: 0.011 to 0.59 µg/mL (≈ 0.0287 to 1.54 µM) | IC50 [26]: 30 to 490 nM | IC50 [27]: 0.011 to 0.59 µg/mL (≈ 0.0287 to 1.54 µM) | IC50 [28]: 30 to 490 nM | IC50 [29]: 30 to 490 nM | IC50 [30]: 30 to 490 nM | IC50 [31]: 30 to 490 nM | IC50 [32]: 30 to 490 nM

SMILES: NC(=O)c1cn([C@@H]2O[C@H](CO)[C@@H](O)[C@H]2O)c2ccc(Oc3ccccc3)cc2c1=O
IC50 [13]: 76800 nM

SMILES: CN(Cc1cnc2nc(N)nc(N)c2n1)c1ccc(C(=O)N[C@@H](CCC(=O)O)C(=O)O)cc1 [METHOTREXATE]
LD50 [33]: 5 mg/kg | LD50 [34]: 5 mg/kg

SMILES: CCC[C@H](N)C(=O)NC1CCN(C2C(F)=Cc3c4n(cc(C(=O)O)c3=O)-c3ccccc3OC42)C1 (stereo partly drawn)
IC50 [20]: 0.01 to 1 µg/mL (≈ 0.0207 to 2.07 µM) | IC50 [21]: 30 to 490 nM | IC50 [22]: 0.01 to 1 µg/mL (≈ 0.0207 to 2.07 µM) | IC50 [23]: 0.01 to 1 µg/mL (≈ 0.0207 to 2.07 µM) | IC50 [24]: 30 to 490 nM | LD50 [33]: 59.6 mg/kg | IC50 [25]: 0.01 to 1 µg/mL (≈ 0.0207 to 2.07 µM) | IC50 [26]: 30 to 490 nM | IC50 [27]: 0.01 to 1 µg/mL (≈ 0.0207 to 2.07 µM) | LD50 [34]: 59.6 mg/kg | IC50 [28]: 30 to 490 nM | IC50 [29]: 30 to 490 nM | IC50 [30]: 30 to 490 nM | IC50 [31]: 30 to 490 nM | IC50 [32]: 30 to 490 nM
